# Results as given in patent US10287530B2, “Surfactants based on monounsaturated fatty alcohol derivatives” (priority 2013, dated 2019).
# Values joined by “and” are separate entries in the source; they are usually repeats but may differ in a detail not shown here. Identical values can stand only once. Like-named read-outs stand apart in the source and are kept apart here.
# Key:
# [1] = Interfacial tension (IFT) against light mineral oil, synergy study with cationic surfactant; format: physicochemical; conditions: for IFT at 0.1% actives/mineral oil (blend): 1:1 molar blend of the anionic with Ammonyx Cetac 30, 0.1% actives, light mineral oil; for Calculated IFT (no synergy): expected IFT of the 1:1 molar blend with Ammonyx Cetac 30 by ideal mixing; for Synergy?: measured versus expected IFT of the 1:1 molar blend with Ammonyx Cetac 30; for IFT at 0.1% actives (single component): 0.1 wt. % active against light mineral oil, ambient temperature
# Experimental: (§1) The surfactant blends tested are prepared at a 1:1 molar ratio without any pH adjustment. Dilutions are made using deionized water to the desired actives level. Actives amounts are wt. % unless indicated otherwise. Appearances are reported at ambient temperature for samples prepared within the last 24 h.
# Interfacial tension (IFT) of all the individual components and their blends is measured at 0.1 wt. % active against light mineral oil at ambient temperature using a Kruss DSA-20 pendent drop tensiometer. The drop is blown out at 600 μL/min., and a video is recorded for 100 s. The video frames taken during the last 15 s are analyzed and used for the IFT calculation.
# For blends having an IFT less than 0.5 mN/m, the IFT is determined using a spinning drop tensiometer (University of Texas 500) at 25° C. Oil density=0.877 g/cm^3 and surfactant density=0.997 g/cm^3 are used for the IFT calculation.
# The expected IFT for a blend is calculated based on ideal mixing (non-synergistic) using the active component in each blend. The equation used is given as: Expected IFT=X*IFTa+(1−X)*IFTb where X is the actives % of component A, IFTa is the IFT of component A, and IFTb is the IFT of component B. If the measured IFT for a blend is less than the expected IFT, then the blend is synergistic. If the measured IFT for a blend is higher than the expected IFT, the system is antagonistic.
# [2] = format: physicochemical; conditions: for Rating: overall, versus control
# Experimental: Surfactant candidates for water soluble herbicide applications are examined as a replacement for the anionic, nonionic, or anionic/nonionic blend portion and compared to a known industry adjuvant standard for use in paraquat, a water soluble herbicide concentrate formulation. A standard dilution test is conducted whereby the concentrates are diluted in water to determine if solubility is complete.
# A known industry paraquat adjuvant (2.8 g) is added and vigorously mixed for 30 s. Deionized water (8.07 g) is added, and mixing resumes for 30 s. […] The cylinder is stoppered and inverted ten times. Solubility is recorded as complete or incomplete. Cylinders are allowed to stand and the amount (in mL) and type of separation are recorded after 30 min., 1 h, 2 h, and 24 h. Results of the solubility testing appear in Table 4 below.
# An eight to ten mole alkyl phenol ethoxylate surfactant (0.7 g) is added and vigorously mixed for 30 s. Test sample (0.7 g) is added and mixing resumes for 30 s. Deionized water (4.03 g) is added, and mixing resumes for 30 s.
# Test sample (0.7 g) is added and vigorously mixed for 30 s. Sodium linear alkylbenzene sulfonate (“NaLAS,” 0.7 g) is added and mixing resumes for 30 s. Deionized water (4.03 g) is added, and mixing resumes for 30 s.
# Test sample (1.4 g) is added and vigorously mixed for 30 s. Deionized water (4.03 g) is added, and mixing resumes for 30 s.
# [3] = Surfactant phase behavior study by cross-polarized microscopy; format: physicochemical; conditions: in deionized water, room temperature (20-22° C.); boundaries are estimates (±5%)
# Experimental: Phase behavior is observed using an Olympus BH-2 cross-polarized microscope at 100-400× and room temperature (20° C. to 22° C.). The monounsaturated C11 alcohol derivatives (sulfates, ethoxylate sulfates, and alcohol ethoxylates) are compared with their saturated analogs. Samples are prepared by diluting the most concentrated product gradually with deionized water. When the surfactant concentration approaches a phase transition, the concentration is varied at 2-4% intervals to estimate the phase boundary. The actives level reported in Table 6 for each phase boundary is within ±5% of the true boundary. Samples are loaded between a microscope slide and cover glass and are allowed to equilibrate before observation. Microscopic texture is analyzed and used to determine the phase. For some samples, an AR 2000 rheometer (TA Instruments) is used to measure viscosity at 25° C. to further verify phase behavior.
# [4] = test system: zein, yellow corn (maize) protein
# Experimental: The zein test is based on solubilization by surfactants of a yellow corn (maize) protein that is normally insoluble in water unless it is denatured. The test gravimetrically determines the amount of zein dissolved by a surfactant solution. The solubility of zein in surfactant solutions correlates well with skin irritation or roughness caused by the surfactant. […] A higher zein number corresponds to a greater degree of irritation.
# A 1% actives solution of each test surfactant (120 mL) is prepared. The pH of each solution is adjusted to about 7.0 with dilute aq. sulfuric acid or dilute aq. sodium hydroxide. The surfactant solution is warmed to 45° C. Zein powder (1.50 g) is added to each of three jars. Surfactant (25.0 g of 1% actives solution) is added to each jar, and to one empty jar to be used as a blank. The solutions are mixed using magnetic stirring on a temperature-controlled hotplate at 45° C. for 60 min. Each mixture is then centrifuged (2500 rpm, 15 min.), and undissolved zein powder is isolated by vacuum filtration. The residue is washed with deionized water and dried (55° C., 24 h) to constant weight. The amount of undissolved zein protein is found gravimetrically, and the results from three runs are averaged to give the % of solubilized zein and zein number.
# [5] = Appearance and solubility of surfactants and of 1:1 molar blends with cationic surfactant; format: physicochemical; conditions: for Appearance, 0.1%: 1:1 molar blend of the anionic with Ammonyx Cetac 30, 0.1% actives; for Appearance, 0.1% / Appearance, 1.0%: ambient temperature; for Appearance, 1.0%: 1:1 molar blend of the anionic with Ammonyx Cetac 30, 1.0% actives
# Experimental: as §1
# [6] = Anionic test sample, 342 ppm water
# [7] = Nonionic test sample, 342 ppm water
# [8] = Adjuvant (anionic/nonionic) test sample, 342 ppm water
# [9] = corn (maize), 60 min, 1 % actives, pH 7
Compound,IFT at 0.1% actives/mineral oil (blend) [1] [mN/m],Calculated IFT (no synergy) [1] [mN/m],Synergy? [1],IFT at 0.1% actives (single component) [1],"Emulsion stability, mL separation, 1 h [2, 6] [mL]","Emulsion stability, mL separation, 24 h [2, 7] [mL]",Rating [2],Estimated Phase Region as a Function of % Actives Level: Hexagonal [3],Estimated Phase Region as a Function of % Actives Level: Isotropic Clear [3],Estimated Phase Region as a Function of % Actives Level: Lamellar [3],Estimated Phase Region as a Function of % Actives Level: Solid/gum/paste [3],"Emulsion stability, mL separation, 1 h [2, 8] [mL]","Emulsion stability, mL separation, 24 h [2, 6] [mL]","Emulsion stability, mL separation, 1 h [2, 7] [mL]",Solubility [5],"Appearance, 0.1% [5]","Appearance, 1.0% [5]","Emulsion stability, mL separation, 24 h [2, 8] [mL]",further results
"1-Undecanol, 1EO Ether Sulfate, Ammonium Salt [Sat. 1EO NH4 sulfate]",0.85,6.2,high,12.40 mN/m,0,0,good,26-58 % actives,0-26 % actives,67-85 % actives,85-100 % actives,–,–,–,–,–,–,–,Estimated Phase Region as a Function of % Actives Level: Cubic [3]: 58-67 % actives
"1-Undecanol, 3EO Ether Sulfate, Sodium Salt [Sat. C11 alcohol 3EO Na sulfate]",0.03,4.58,very high,8.80 mN/m,0,0.5,good,33-58 % actives,0-33 % actives,58-82 % actives,82-100 % actives,0,0,0.1,fair-poor,hazy liquid,separated,–,% solubilized zein [4]: 22.3%; zein number [4]: 44.9
"CCCCCCCCCCCCCCCC[N+](C)(C)C.[Cl-] [Ammonyx ® Cetac 30 (cetrimonium CI), cetrimonium CI]",–,–,–,0.35 mN/m and 0.38 mN/m,–,–,–,–,–,–,–,–,–,–,–,–,–,–,–
"CCCCCCCCCCCOS(=O)(=O)[O-].[Na+] [Sat. C11 alcohol Na sulfate, 1-Undecanol Sulfate, Sodium Salt]",2.67,8.35,above average,16.34 mN/m,0,0.3,good,33-43 % actives,0-33 % actives,–,43-100 % actives,0.2,0,0.2,–,separated,separated,0.4,"% solubilized zein [4, 9]: 52.9%; zein number [4, 9]: 107; sol (solubility) [2, 8]: I; sol (solubility) ([2]; Anionic test sample: replaces anionic portion, paraquat concentrate in 342 ppm water, 30° C.): S; sol (solubility) ([2]; Nonionic test sample: replaces nonionic portion (with NaLAS), 342 ppm water): I; Solubility ([5]; 1:1 molar blend of the anionic with Ammonyx Cetac 30): poor"
"Undecylenic Alcohol Sulfate, Sodium Salt [Unsat. C11 alcohol Na sulfate]",0.17,3.16,–,5.95 mN/m,0,0.4,good,–,0-68 % actives,–,68-100 % actives,0,0,0.25,good,–,–,0.25,"Synergy? ([1]; listed as Unsat C11 Na sulfate, Sulfate, Sodium Salt): very high; Synergy? ([1]; listed as unsaturated C11 alcohol sulfate, sodium salt, Sulfate, Sodium Salt): very high synergy; % solubilized zein ([4]; 1% actives solution, pH about 7.0, 45° C., 60 min, average of three runs): 9.6%; zein number ([4]; relative to 1% actives Stepanol WA-Extra PCK (SLS) control = 100, higher = more irritating, average of three runs): 19.3"
"Undecylenic Alcohol, 1EO Ether Sulfate, Ammonium Salt [Unsat. 1EO NH4 sulfate]",0.60,8.8,very high,17.22 mN/m,–,–,good,31-58 % actives,0-31 % actives,58-91 % actives,91-100 % actives,0,0,0,–,–,–,0,–
